Assays:
[1] = system: Solid Ehrlich Carcinoma (SEC); assay: In vivo antitumor activity against Solid Ehrlich Carcinoma; parameters: species or system Swiss albino mice; details: SEC-bearing mice, 5 mg/kg BW I.P.
Description: To examine the in vivo anticancer activity of compound 9d, adult female Swiss albino mice (30 mice) inoculated with I.P. injection of Solid Ehrlich Carcinoma (SEC) tumour cell lines in a volume of 0.2 ml physiological saline contains 1 × 10^6 viable cells for 24 h.
These mice were randomly divided into four groups (7 mice/group). […] Bodyweight and survival were recorded daily until the 24th day in both treated and control groups. At the end of the experiment, the blood of each group was collected under light anaesthesia for the estimation of hematological and biochemical assays. The anaesthetised animals were then sacrificed to evaluate of the antitumor activity and to conduct hematological, biochemical, and histopathological assays, Figure 3.
Adult female Swiss albino mice purchased from Theodor Bilharzia Research Institute, Giza, Egypt, with an average bodyweight of (18–23) g were used. Mice were housed under constant conditions of 12 h light/dark cycle in a […], with free access to standard laboratory mice food and water. All procedures related to care and maintenance of the animals were performed according to the international guiding principles for animal research and approved by the Faculty of Science, Suez Canal University bioethics and animal ethics committee (Approval number REC-07–2021).
Solid Ehrlich carcinoma (SEC) was purchased from the National Cancer Institute (Cairo University, Egypt). The tumour cell line was proliferated in mice through serial intraperitoneal (I.P.) transplantation of a volume of 0.2 ml physiological saline contains 1 × 10^6 viable cells for 24 h. SEC cells were collected 7 days after I.P. implantation. The harvested cells were diluted with saline to obtain a concentration of 5 × 10^6 viable SEC cells/mL. A volume of 0.2 ml saline contains 1 × 10^6 SEC cells that were I.P. implanted into each normal mouse. SEC cells (1 × 10^6 tumour cells/mouse) were implanted subcutaneously into the right thigh of the hind limb.
(§1) The experimental animals were randomly divided into four groups. Group 1 served as the normal saline control (5 ml/kg B.Wt., I.P.). Group 2 served as the SEC control (1 × 10^6 cells/mouse). Group 3 served as the compound-treated group (5 mg/kg B.Wt., I.P.). […] Bodyweight and survival were recorded daily until the 24th day in both treated and control groups. At the end of the experiment, the blood of each group was collected under light anaesthesia to the estimate of hematological and biochemical assays. The anaesthetised animals were then sacrificed for evaluation of the antitumor activity and histopathological examination.
It includes tumour volume, weight, and tumour inhibition ratio (TIR%). Time interval measurements of tumour volume using digital Vernier calliper (Tricle Brand, Shanghai, China). Measure tumour length and width using a clipper and then calculate tumour volume using formulations V = (L × W × W)/2, where V is tumour volume, W is tumour width, L is tumour length. While TIR% was calculated according to the following equation Tumor volume (Control)−Tumor volume (treated)/Tumor volume (control)× 100.

Calf thymus DNA = assay: DNA intercalation assay (DNA/methyl green colorimetric assay); format: binding; details: three independent experiments
Description: (§2) The data represented the mean of three independent experiments in triplicate and were expressed as means ± SD. […]
4.2.2. DNA intercalation assay (DNA/methyl green colorimetric assay)
Affinity of some compounds for DNA-binding was examined in vitro using DNA/methyl green assay using doxorubicin as a positive control. In this test, a mixture of methyl green (20 mg) and Calf thymus DNA (10 mg) (Sigma– Aldrich) were suspended in 0.05 M TrisHCl buffer (100 mL, pH 7.5) containing 7.5 mM MgSO4. This mixture was stirred continuously for 24 h at 37 °C. Then, ethanolic solution of the test compounds was pitted into the wells of a 96-well microtiter tray at a concentration of 10, 100 and 1000 µM. The excess solvent was removed from each well under vacuum, with subsequent addition of 200 µL of the DNA/methyl green solution. The test samples were incubated for 24 h in dark at ambient temperature. After that, absorbance of each sample was determined at 642.5–645 nm. In this test, the methyl green dye reversibly binds to DNA to form persistent colored complex of DNA/methyl green. This color still stables at neutral pH. When the DNA intercalators were added, the methyl green was displaced from DNA with addition of H2O molecule to the dye resulting in formation of the colorless carbinol leading to a decrease in spectrophotometric absorbance. ΔA value (the difference between DNA/methyl green complex and free cabinol) provides the simplest means for detecting the DNA-binding affinity and relative binding strength. IC50′s were determined by linear regression of data plotted on a semi -log scale and the data were compared with doxorubicin as standard DNA intercalator . […]

[2] = Histopathological examination of liver tissues of SEC-bearing mice; format: in vivo, Swiss albino mice; details: H&E stain, ×200
Description: as §1
Specimens of liver-sacrificed mice were fixed in 10% saline formalin. The fixed liver specimens were dehydrated in ascending series of ethyl alcohol and embedded in paraffin. Sections at […] thicknesses were stained with haematoxylin and eosin and examined under the light microscope.

[3] = system: HCT-116 cells (colorectal carcinoma); assay: MTT anti-proliferative assay, HCT-116; format: cell-based, human; details: Homo sapiens, HCT-116, MTT, mean ± SD of three separate experiments; read-out: In vitro Cytotoxicity IC50 HCT-116
Description: Anti-proliferative activities of the target compounds were assessed via the standard MTT method[38–40] against three cancer cell lines, namely, hepatocellular carcinoma (HepG-2), colorectal carcinoma (HCT-116), and human breast adenocarcinoma (MCF-7). Doxorubicin was used in this test as a positive control.
Anti-proliferative activity of the synthesised compounds was estimated using the MTT assay protocol[8]^,[38–40] as shown in Supplementary data.
4.2.1. In vitro anti-proliferative activity against MCF-7, HepG-2 and HCT-116 The cells were cultured in RPMI-1640 medium supplemented with 10% fetal bovine serum (FBS), penicillin (100 unit /mL) and streptomycin sulphate (100µg/mL) at 37 °C in a 5% CO2 incubator.
Then, cells were dropped in 96-well plates at a density of 3-8 × 10^3 cells/well and incubated for two days in a 5% CO2 incubator at 37 °C. Then, the cells were treated with the synthesized compounds and the cell cultures were continued incubated for 24 h. However, Different concentrations of the compound under test (0.0, 5.0, 12.5, 25.0 and 50 mg/ml) were added to the cell monolayer. Then, (3-[4,5-dimethylthiazol-2-yl]- 2,5-diphenyltetrazolium bromide) MTT solution (20 µl, 5mg/mL) was added to each well and incubated for additional 4 h. The formed purple crystals of MTT-formazan were dissolved in 100 µl DMSO each well; the absorbance of each well was measured at 570 nm using a plate reader (EXL 800, USA). All of the compounds were tested three times. The relative cell viability in percentage was calculated. The results for IC50 values of the active compounds are […]
as §2
of the cells could survive. […]

[4] = Hematological and biochemical blood assays in SEC-bearing mice; format: in vivo, Swiss albino mice; details: 5 mg/kg BW, Mean ± SEM (n = 7)
Description: At the end of the experiment, animals from different groups were sacrificed, and blood samples were collected for hematological parameters, including Hb, RBC’s, and WBC’s levels, and serum for determination of liver enzymes ALT, AST levels, and proteins.
as §1
At the end of the experiment, animals from different groups were sacrificed, and blood samples were collected for hematological parameters including, Hb, RBC’s, and WBC’s levels, and serum for determination of liver enzymes ALT, AST levels, and proteins. Complete blood count (CBC) was investigated using the Abbott CELL-DYN®1800 automated haematology analyser (USA) using ready-made kits (Abbott Laboratories, Abbott Park, IL, USA). Activities of aspartate aminotransferase (AST) and alanine aminotransferase (ALT) were evaluated using commercial kits (ELITech clinical systems, France). Serum albumin level was determined by kit purchased from STANBIO Company (USA). Protein content was determined by colorimetric method using ready-made kits produced by Instrumentation Laboratory SpA, Inova diagnostics, Milano, Italy.

IC50 (Calf thymus DNA): 31.3 ± 1.8 µM
Hb [4]: 7.82 ± 0.27 g/dL
RBCs count [4]: 5.26 ± 0.38 ×10^6/µL
Total Protein [4]: 6.73 ± 0.26 g/dL
WBCs count [4]: 4.11 ± 0.57 ×10^3/µL
SMILES: COc1cccc2c1C(=O)c1c(O)c3c(c(O)c1C2=O)C[C@@](O)(C(=O)CO)C[C@@H]3O[C@H]1C[C@H](N)[C@H](O)[C@H](C)O1 [Doxorubicin, reference compound]
tumour volume [1]: 22 mm^3
reduction of the increase in solid tumour mass ([1]; compared to SEC control): 59.8%
solid tumour mass ([1]; SEC control 194 mg): 78 mg
Histopathological finding in liver tissue [2]: tissue enhancement like normal group, but still, some hydropic degeneration, pyknosis (arrows) and karyolysis (arrowhead) were shown
IC50 [3]: 9.62 ± 0.5 µM

Source: PMC8667898, “Topo II inhibition and DNA intercalation by new phthalazine-based derivatives as potent anticancer agents: design, synthesis, anti-proliferative, docking, and in vivo studies” (Journal of Enzyme Inhibition and Medicinal Chemistry, 2021)
